Our source for the IC50 values is ChEMBL document CHEMBL5728837, “Non-fused tricyclic compounds” (2021).

The nature of this experiment: YAP Reporter Assay: HEK293T cells stably transfected with 8XTBD luciferase reporter and pRLTK in 384-well plates were treated with the test compounds, starting from 3 μM (final concentration in assay plate), 1:3 dilution, and 10 points in quadruplicates. Post 24-hr incubation with compounds at 37° C. and 5% CO2, cells were lysed and 8XTBD-driven firefly luciferase and control TK-driven renilla luciferase activities were measured using Promega Dual-Luciferase Reporter Assay System.Reagents: The reagents used for this study are: DMEM: Invitrogen #11960077, Dual-Glo Luciferase Assay System: Promega-E2980, Puromycin Dihydrochloride: Invitrogen-A1113803, 384-well plate: PerkinElmer-6007480, L-GLUTAMINE: Invitrogen-25030164, Hygromycin B: Invitrogen-10687010, and Penicillin-Streptomycin: Merk-TMS-AB2-CMedia: The media used for this assay were: Culture Medium: DMEM+1 ug/mL puromycin+200 ug/mL hygromycin (with 10% FBS+1 mM L-glutamine); and Assay Medium: DMEM (with 10% FBS+1 mM L-glutamine+1× P/S).Cell Plating: The appropriate media was warmed at 37° C. by water bath: Culture Medium, Assay Medium, 1*D-PBS, 0.05% trypsin-EDTA. The cells were trypsinized after removing all media, then washed with 1*sterile D-PBS and then with 2 ml 0.05% trypsin-EDTA. The cells were then incubated at RT for one minute. Then 10 ml/75 cm2 flask Assay Medium was added to each flask. Using a 10 ml pipette, the cells were then gently resuspended in the media, until the clumps completely disappeared. The cells were then transferred into 50 ml centrifuge tubes and were centrifuged at 800 rpm for 5 mins. The medium was removed and the cells were resuspended with Assay Medium. An aliquot of cells was used to count the cell density (cells/nil). The cell suspension was then diluted with Assay Medium to a concentration of 6×10^4 cells/ml. 50 ul cells suspension was then plated to 384-well plate (PerkinElmer-6007480), 3×10^3 cells/well and the cells were incubated in an incubator at 37° C., 5% CO2.Compound Treatment: In the afternoon (incubation of the plate with 3-4 hrs), the test compounds were added by Echo, starting from 3 uM (final concentration in the assay plate), 1:3 dilution, 10 points, quadruplicates. The plate was placed at 37° C., 5% CO2 incubator for 24 hrs.Detection: The Dual-Glo Luciferase Reagent was prepared by transferring the contents of one bottle of Dual-Glo Luciferase Buffer to one bottle of Dual-Glo Luciferase Substrate to create the Dual-Glo Luciferase Reagent. Mixing was performed by inversion until the substrate was thoroughly dissolved. After mixing, the reagent was aliquoted into 15 ml tubes. In the afternoon (24 hrs post compound treatment), the DMEM+ medium in the 384 well plates were aspirated by Microplate Washer.Measuring firefly luciferase activity: 20 ul Dual-Glo Luciferase Reagent was added to the 384-well plates. The plates were protected from light to prevent interference with the assay. The plates were shaken for 1 min followed centrifuging plates at 1000 rpm for 30 seconds. After waiting at least 10 minutes, the firefly luminescence was measured by Envision.Measuring renilla luciferase activity: 20 ul Stop-Glo Reagent was added to the 384-well plates. The plates were shaken for lmin and then centrifuged at 1000 rpm for 30 seconds. After waiting at least 10 minutes, the renilla luminescence was measured by Envision.

SMILES strings stand for the structures. Where only a bound is given, the exact number is not on record here.

For `OCCn1nnc(-c2ccccc2Nc2cccc(C(F)(F)F)c2)n1`, the IC50 result is “in the range around 3000 nM”. In addition, the IC50 result (HEK-293T, 24 h) is “in the range around 3000 nM”.
Turning to `FC(F)(F)c1ccc(Nc2ccccc2-c2nnn(C3CCCOC3)n2)cc1` (stereo unspecified), the IC50 result (HEK-293T, 24 h) was “in the range around 550 nM”.
The same measure, in the same setting: the entry for `Cc1c(-c2ccccc2Nc2ccc(C(F)(F)F)cc2)cnn1CCO` is “in the range around 3000 nM”.
Consider `OCCn1nnc(-c2ccc(Cl)cc2Nc2ccc(C(F)(F)F)cc2)n1`, for which the half-inhibitory concentration (IC50) (HEK-293T, 24 h) is under 100 nM.
With `COc1ccc(-c2nnn(CCO)n2)c(Nc2ccc(C(F)(F)F)cc2)c1`, the concentration for half-maximal inhibition (IC50) (HEK-293T, 24 h) was under 100 nM.
On the same count and under the same terms, the entry for `Cn1nc(-c2ccccc2Nc2ccc(C(F)(F)F)cc2)cc1CCO` is “in the range around 3000 nM”; for `OC1(Cn2nnc(-c3ccccc3Nc3ccc(C(F)(F)F)cc3)n2)CCN(c2ccccc2)C1` (stereo unspecified) it is “in the range around 3000 nM”.
Still for that read-out and setting: the value for `OCCn1nnc(-c2cc(OC(F)(F)F)ccc2Nc2ccc(C(F)(F)F)cc2)n1` was “in the range around 550 nM”; that for `CC(C)(C)OC(=O)N1CCCC(O)(Cn2nnc(-c3ccccc3Nc3ccc(C(F)(F)F)cc3)n2)C1` (stereo unspecified) was “in the range around 3000 nM”.
As for `FC(F)(F)c1ccc(Nc2ccccc2-c2nnn(C3CCNC3)n2)cc1` (stereo unspecified), for the setting “HEK-293T, 24 h”, the IC50 entry was “in the range around 550 nM”.
The same measure, in the same setting: the value for `OCCn1nnc(-c2ccccc2Nc2ccc(F)cc2)n1` was “in the range around 550 nM”; that for `OCCn1nnc(-c2ccccc2Nc2ccc(Cl)cc2)n1` was “in the range around 550 nM”.
`FC(F)(F)c1ccc(Nc2ccccc2-c2nnn(C3CCOC3)n2)cc1` (stereo unspecified): for the setting “HEK-293T, 24 h”, the 50% inhibitory concentration (IC50) is under 100 nM.
Take `FC(F)(F)c1ccc(Nc2ccccc2-c2nnn(Cc3ccncc3)n2)cc1`: the IC50 result (HEK-293T, 24 h) is “in the range around 550 nM”.
Same read-out and setting: the value for `OCCn1nnc(-c2ccc(F)cc2Nc2ccc(C(F)(F)F)cc2)n1` was under 100 nM.
